Data from patent US20230011571A1, “SMALL MOLECULE FURIN INHIBITORS FOR TREATING INFECTIOUS DISEASES” (BP Asset V, Inc., priority 2019, published 2023).

Assays:
Format in all cases: cell-based
Marburg virus (MARV) = test: organism not typed; conditions: Vero, 72 h, read-out: Percent viral inhibition MARV
[1] = test system: Chikungunya virus (CHIKV); test: microbe, parasite or virus in culture; conditions: Chikungunya virus, Vero, 48 h, read-out: Percent viral inhibition CHKV
dengue virus (DENV) = test: microbe, parasite or virus in culture; conditions: Dengue virus, Vero, 120 h, read-out: Percent viral inhibition DENY

CCN1CCN(c2ccc(Oc3cc(CN4CCC(CC(=O)O)CC4)cc(-c4cc(Cl)cc(Cl)c4)n3)nn2)CC1 [Example 358, 2-(1-((2-(3,5-dichlorophenyl)-6-((6-(4-ethylpiperazin-1-yl)pyridazin-3-yl)oxy)pyridin-4-yl)methyl)piperidin-4-yl)acetic acid]
inhibition at 1 µM (Marburg virus (MARV)): 49%
inhibition at 1 µM [1]: 20.4%
inhibition at 1 µM (dengue virus (DENV)): 67.1%

CN1CCN(c2ccc(Oc3cc(CN4CCC(CC(=O)O)CC4)cc(-c4cc(Cl)cc(Cl)c4)n3)nn2)CC1 [Example 359, 2-(1-((2-(3,5-dichlorophenyl)-6-((6-(4-methylpiperazin-1-yl)pyridazin-3-yl)oxy)pyridin-4-yl)methyl)piperidin-4-yl)acetic acid]
inhibition at 1 µM (Marburg virus (MARV)): 62%
inhibition at 1 µM [1]: 28.9%
inhibition at 1 µM (dengue virus (DENV)): 45.3%

CN1CCN(c2ccc(Oc3cc(CN4CCC(CCO)CC4)cc(-c4cc(Cl)cc(Cl)c4)n3)nn2)CC1 [Example 360, 2-(1-((2-(3,5-dichlorophenyl)-6-((6-(4-methylpiperazin-1-yl)pyridazin-3-yl)oxy)pyridin-4-yl)methyl)piperidin-4-yl)ethanol]
inhibition at 1 µM (Marburg virus (MARV)): 3.44%
inhibition at 1 µM [1]: 0%
inhibition at 1 µM (dengue virus (DENV)): 2.83%

CN1CCN(c2ccc(Oc3cc(CN4CC[C@@H]5[C@H](CC4)[C@H]5C(=O)O)cc(-c4cc(Cl)cc(Cl)c4)n3)nn2)CC1 [Example 361, (1R,7S,8r)-4-((2-(3,5-dichlorophenyl)-6-((6-(4-methylpiperazin-1-yl)pyridazin-3-yl)oxy)pyridin-4-yl)methyl)-4-azabicyclo[5.1.0]octane-8-carboxylic acid]
inhibition at 1 µM (Marburg virus (MARV)): 42%
inhibition at 1 µM [1]: 26.6%
inhibition at 1 µM (dengue virus (DENV)): 12.1%

CN1CCCN(c2ccc(Oc3cc(CN4CC[C@@H]5[C@H](CC4)[C@H]5C(=O)O)cc(-c4cc(Cl)cc(Cl)c4)n3)nn2)CC1 [Example 362, (1R,7S,8r)-4-((2-(3,5-dichlorophenyl)-6-((6-(4-methyl-1,4-diazepan-1-yl)pyridazin-3-yl)oxy)pyridin-4-yl)methyl)-4-azabicyclo[5.1.0]octane-8-carboxylic acid]
inhibition at 1 µM (Marburg virus (MARV)): 50.9%
inhibition at 1 µM [1]: 14.9%
inhibition at 1 µM (dengue virus (DENV)): 50.2%

CC(=O)NCC1CCN(Cc2cc(Oc3ccc(N4CCN(CC(C)C(=O)O)CC4)nn3)nc(-c3cc(Cl)cc(Cl)c3)c2)CC1 (stereo not drawn) [Example 363, 3-(4-(6-((4-((4-(acetamidomethyl)piperidin-1-yl)methyl)-6-(3,5-dichlorophenyl)pyridin-2-yl)oxy)pyridazin-3-yl)piperazin-1-yl)-2-methylpropanoic acid]
inhibition at 1 µM (Marburg virus (MARV)): 2.8%
inhibition at 1 µM [1]: 0%
inhibition at 1 µM (dengue virus (DENV)): 0%

C[C@H](CC1CCN(Cc2cc(Oc3ccc(N4CCN(C)CC4)nn3)nc(-c3cc(Cl)cc(Cl)c3)c2)CC1)C(=O)O [Example 364, (R)-3-(1-((2-(3,5-dichlorophenyl)-6-((6-(4-methylpiperazin-1-yl)pyridazin-3-yl)oxy)pyridin-4-yl)methyl)piperidin-4-yl)-2-methylpropanoic acid]
inhibition at 1 µM (Marburg virus (MARV)): 47.6%
inhibition at 1 µM [1]: 31.4%
inhibition at 1 µM (dengue virus (DENV)): 40%

C[C@@H](CC1CCN(Cc2cc(Oc3ccc(N4CCN(C)CC4)nn3)nc(-c3cc(Cl)cc(Cl)c3)c2)CC1)C(=O)O [Example 365, (S)-3-(1-((2-(3,5-dichlorophenyl)-6-((6-(4-methylpiperazin-1-yl)pyridazin-3-yl)oxy)pyridin-4-yl)methyl)piperidin-4-yl)-2-methylpropanoic acid]
inhibition at 1 µM (Marburg virus (MARV)): 17.4%
inhibition at 1 µM [1]: 0%
inhibition at 1 µM (dengue virus (DENV)): 32.4%

CCN1C[C@@H]2C[C@H]1CN2c1ccc(Oc2cc(CN3CCC(CC(=O)O)CC3)cc(-c3cc(Cl)cc(Cl)c3)n2)nn1 [Example 366, 2-(1-((2-(3,5-dichlorophenyl)-6-((6-((1S,4S)-5-ethyl-2,5-diazabicyclo[2.2.1]heptan-2-yl)pyridazin-3-yl)oxy)pyridin-4-yl)methyl)piperidin-4-yl)acetic acid]
inhibition at 1 µM (Marburg virus (MARV)): 23.1%
inhibition at 1 µM [1]: 6.17%
inhibition at 1 µM (dengue virus (DENV)): 48.5%

CC(=O)N[C@H]1[C@@H]2CCN(Cc3cc(Oc4cnc(N5CCN(CCC(=O)O)CC5)nc4)nc(-c4cc(Cl)cc(Cl)c4)c3)CC[C@@H]21 [Example 367, 3-(4-(5-((4-(((1R,7S,8r)-8-acetamido-4-azabicyclo[5.1.0]octan-4-yl)methyl)-6-(3,5-dichlorophenyl)pyridin-2-yl)oxy)pyrimidin-2-yl)piperazin-1-yl)propanoic acid]
inhibition at 1 µM (Marburg virus (MARV)): 54.7%
inhibition at 1 µM [1]: 27.4%
inhibition at 1 µM (dengue virus (DENV)): 15%

COC(=O)C(C)CCN1CCN(c2ncc(Oc3cc(CN4CCC(CNC(C)=O)CC4)cc(-c4cc(Cl)cc(Cl)c4)n3)cn2)CC1 (stereo not drawn) [Example 368, methyl4-(4-(5-((4-((4-(acetamidomethyl)piperidin-1-yl)methyl)-6-(3,5-dichlorophenyl)pyridin-2-yl)oxy)pyrimidin-2-yl)piperazin-1-yl)-2-methylbutanoate]
inhibition at 1 µM (Marburg virus (MARV)): 65.4%
inhibition at 1 µM [1]: 32.5%
inhibition at 1 µM (dengue virus (DENV)): 65.8%

CC(=O)NCC1CCN(Cc2cc(Oc3cnc(N4CCN(CCC(C)(C)C(=O)O)CC4)nc3)nc(-c3cc(Cl)cc(Cl)c3)c2)CC1 [Example 370, 4-(4-(5-((4-((4-(acetamidomethyl)piperidin-1-yl)methyl)-6-(3,5-dichlorophenyl)pyridin-2-yl)oxy)pyrimidin-2-yl)piperazin-1-yl)-2,2-dimethylbutanoic acid]
inhibition at 1 µM (Marburg virus (MARV)): 57%
inhibition at 1 µM [1]: 24.6%
inhibition at 1 µM (dengue virus (DENV)): 41.7%

CC(=O)NCC1CCN(Cc2cc(Oc3cnc(N4CCN(C(C)CCS(C)(=O)=O)CC4)nc3)nc(-c3cc(F)cc(Cl)c3)c2)CC1 (stereo not drawn) [Example 372, N-((1-((2-(3-chloro-5-fluorophenyl)-6-((2-(4-(4-(methylsulfonyl)butan-2-yl)piperazin-1-yl)pyrimidin-5-yl)oxy)pyridin-4-yl)methyl)piperidin-4-yl)methyl)acetamide]
inhibition at 1 µM (Marburg virus (MARV)): 45.3%
inhibition at 1 µM [1]: 18.2%
inhibition at 1 µM (dengue virus (DENV)): 81.8%

CNC(=O)NCC1CCN(Cc2cc(Oc3cnc(N4CCN(C(C)CCS(C)(=O)=O)CC4)nc3)nc(-c3cc(F)cc(Cl)c3)c2)CC1 (stereo not drawn) [Example 373, 1-((1-((2-(3-chloro-5-fluorophenyl)-6-((2-(4-(4-(methylsulfonyl)butan-2-yl)piperazin-1-yl)pyrimidin-5-yl)oxy)pyridin-4-yl)methyl)piperidin-4-yl)methyl)-3-methylurea]
inhibition at 1 µM (Marburg virus (MARV)): 67.8%
inhibition at 1 µM [1]: 28.8%
inhibition at 1 µM (dengue virus (DENV)): 53.4%

CN1CCCN(c2ncc(Oc3cc(CN4CCC(CC(=O)O)CC4)cc(-c4cc(F)cc(Cl)c4)n3)cn2)CC1 [Example 374, 2-(1-((2-(3-chloro-5-fluorophenyl)-6-((2-(4-methyl-1,4-diazepan-1-yl)pyrimidin-5-yl)oxy)pyridin-4-yl)methyl)piperidin-4-yl)acetic acid]
inhibition at 1 µM (Marburg virus (MARV)): 48.6%
inhibition at 1 µM [1]: 17.6%
inhibition at 1 µM (dengue virus (DENV)): 38.5%

CN1CCN(c2ncc(Oc3cc(-c4cc(Cl)cc(Cl)c4)cc(CN4CCC(CC(=O)O)CC4)c3F)cn2)CC1 [Example 376, 2-(1-((3′,5′-dichloro-4-fluoro-5-((2-(4-methylpiperazin-1-yl)pyrimidin-5-yl)oxy)-[1,1′-biphenyl]-3-yl)methyl)piperidin-4-yl)acetic acid]
inhibition at 1 µM (Marburg virus (MARV)): 12.7%
inhibition at 1 µM [1]: 13.5%
inhibition at 1 µM (dengue virus (DENV)): 0%

CN1CCN(c2ncc(Oc3nc(-c4cc(Cl)cc(Cl)c4)cc(CN4CCC(CC(=O)O)CC4)c3F)cn2)CC1 [Example 379, 2-(1-((6-(3,5-dichlorophenyl)-3-fluoro-2-((2-(4-methylpiperazin-1-yl)pyrimidin-5-yl)oxy)pyridin-4-yl)methyl)piperidin-4-yl)acetic acid]
inhibition at 1 µM (Marburg virus (MARV)): 51.2%
inhibition at 1 µM [1]: 41.5%
inhibition at 1 µM (dengue virus (DENV)): 35.2%

COC(=O)CCN1CCN(c2ccc(Oc3cc(CN4CCC(CNC(C)=O)CC4)cc(-c4cc(Cl)cc(Cl)c4)n3)cn2)CC1 [Example 385, methyl3-(4-(5-((4-((4-(acetamidomethyl)piperidin-1-yl)methyl)-6-(3,5-dichlorophenyl)pyridin-2-yl)oxy)pyridin-2-yl)piperazin-1-yl)propanoate]
inhibition at 1 µM (Marburg virus (MARV)): 56.7%
inhibition at 1 µM [1]: 14.9%
inhibition at 1 µM (dengue virus (DENV)): 48.5%

O=C(O)CC1CCN(Cc2cc(Oc3cnc(N4CCN(Cc5cnn[nH]5)CC4)nc3)nc(-c3cc(Cl)cc(Cl)c3)c2)CC1 [Example 387, 2-(1-((2-((2-(4-((1H-l,2,3-triazol-5-yl)methyl)piperazin-1-yl)pyrimidin-5-yl)oxy)-6-(3,5-dichlorophenyl)pyridin-4-yl)methyl)piperidin-4-yl)acetic acid]
inhibition at 1 µM (Marburg virus (MARV)): 41.4%
inhibition at 1 µM [1]: 36.3%
inhibition at 1 µM (dengue virus (DENV)): 39.9%

CC(=O)NCC1CCN(Cc2cc(Oc3cnc(N4CCN(CCC(N)=O)CC4)cn3)nc(-c3cc(Cl)cc(Cl)c3)c2)CC1 [Example 391]
inhibition at 1 µM (Marburg virus (MARV)): 35.4%
inhibition at 1 µM [1]: 14%
inhibition at 1 µM (dengue virus (DENV)): 51.4%

CCC(=O)NCC1CCN(Cc2cc(Oc3cnc(N4CCN(CCC(C)C(=O)O)CC4)cn3)nc(-c3cc(Cl)cc(Cl)c3)c2)CC1 (stereo not drawn) [Example 392, 4-(4-(5-((6-(3,5-dichlorophenyl)-4-((4-(propionamidomethyl)piperidin-1-yl)methyl)pyridin-2-yl)oxy)pyrazin-2-yl)piperazin-1-yl)-2-methylbutanoic acid]
inhibition at 1 µM (Marburg virus (MARV)): 60.6%
inhibition at 1 µM [1]: 15.8%
inhibition at 1 µM (dengue virus (DENV)): 34.9%

COC(=O)NCC1CCN(Cc2cc(Oc3cnc(N4CCN(C)CC4)cn3)nc(-c3cc(Cl)cc(Cl)c3)c2)CC1 [Example 395, methyl((1-((2-(3,5-dichlorophenyl)-6-((5-(4-methylpiperazin-1-yl)pyrazin-2-yl)oxy)pyridin-4-yl)methyl)piperidin-4-yl)methyl)carbamate]
inhibition at 1 µM (Marburg virus (MARV)): 37.2%
inhibition at 1 µM [1]: 0%
inhibition at 1 µM (dengue virus (DENV)): 88.2%
